Target: T1, P2X purinoceptor 7 (Homo sapiens, UniProt Q99572)
T1 sequence (Q99572 whole entry): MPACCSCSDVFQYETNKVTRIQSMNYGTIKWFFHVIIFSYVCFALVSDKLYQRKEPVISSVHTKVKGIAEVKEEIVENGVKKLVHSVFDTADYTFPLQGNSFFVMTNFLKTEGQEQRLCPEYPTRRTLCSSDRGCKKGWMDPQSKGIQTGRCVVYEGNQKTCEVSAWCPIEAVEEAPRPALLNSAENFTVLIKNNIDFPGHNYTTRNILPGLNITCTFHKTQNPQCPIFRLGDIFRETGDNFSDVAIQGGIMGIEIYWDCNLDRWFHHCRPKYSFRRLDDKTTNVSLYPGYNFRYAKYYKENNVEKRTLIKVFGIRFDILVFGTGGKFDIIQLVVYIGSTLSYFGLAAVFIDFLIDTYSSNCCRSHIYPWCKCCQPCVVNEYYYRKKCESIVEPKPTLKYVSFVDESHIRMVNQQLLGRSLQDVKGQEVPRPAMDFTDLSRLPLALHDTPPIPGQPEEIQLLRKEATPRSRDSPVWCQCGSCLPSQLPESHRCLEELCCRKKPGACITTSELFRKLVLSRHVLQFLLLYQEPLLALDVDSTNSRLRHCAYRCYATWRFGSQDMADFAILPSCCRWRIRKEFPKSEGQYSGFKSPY
Experiment: Pore Permeation Assay
Description: Agonist-induced pore formation was determined by measuring cellular uptake of YO PRO fluorescence dye in HEK293 transfected with human P2X7 receptor. A HEK293 cell over expressing human P2X7 was harvested using HQTase reagent to detach the cells from T75 cm flask. The harvested cells are centrifuged @1200 rpm for 5 min at room temperature. The viability of cells was determined by Trypan blue dye and the cells are plated @10,000 cell/well in 50 ul volume in a 384W BD Poly lysine coated plate and incubated overnight at 37 C. […] The plate was centrifuged at 1000 rpm for 5 seconds and incubated at room temperature for 30 minutes. The uptake of YO PRO dye into the cells was measured using Envision Fluorescence plate reader instrument (Perkin Elmer).

Question: Which IC50 does the source give for CCN(C)C(=O)Cn1cc(C(=O)NCC2CCC(F)(F)CC2)c2c(Cl)cccc21 [US10323000, Compound 163] here?
Answer: The IC50 was < 0.01 µM.

From BindingDB's records for patent US10323000 (Merck Patent, 2019)
